Test results: patent US10030016B2 (Sunesis Pharmaceuticals, Inc., priority 2009, dated 2018)
Structures can show the parent of a compound that is named as a salt. Where two headings read alike, the source gives them in different places.

Columns and labels:
[1] = test system: phospho-akt (Thr308) in PC-3 cells; test: Inhibition of phospho-akt (Thr308) in PC-3 cells, MSD phospho-akt 308 ELISA kit; format: cell-based; conditions: 2 hours, no serum, read-out: EC50
How it was run: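 Read-out is MSD electrochemiluminescence of Akt phosphorylated at Thr308 in lysates of PC-3 cells treated 2 h with compound in serum-free medium. Wortmannin at 5 μM defined the low control and DMSO the high control.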

PDK1 = PDK1 (Homo sapiens (Human), UniProt O15530); test: PDK1 kinase assay (coupled PDK1/AKT/FAM-crosstide assay, IMAP fluorescence polarization); format: biochemical
Chain of PDK1 (O15530 51-359): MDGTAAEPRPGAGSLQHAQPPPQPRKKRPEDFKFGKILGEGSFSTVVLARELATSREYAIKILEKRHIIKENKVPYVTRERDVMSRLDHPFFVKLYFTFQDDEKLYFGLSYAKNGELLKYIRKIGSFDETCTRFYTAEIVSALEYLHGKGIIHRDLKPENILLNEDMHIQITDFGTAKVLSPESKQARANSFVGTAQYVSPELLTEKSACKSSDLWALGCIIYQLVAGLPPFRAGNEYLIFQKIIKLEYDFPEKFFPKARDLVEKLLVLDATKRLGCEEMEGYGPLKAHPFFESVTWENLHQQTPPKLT
How it was run: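 GST-tagged PDK1 (aa 51-359, 0.75 nM) was coupled to unphosphorylated GST-AKT2 140-467-PIFtide (10 nM) and 100 nM FAM-crosstide at 40 μM ATP, in Tris pH 7.2 buffer, for 30 min at 25 °C. Crosstide phosphorylation was read by IMAP fluorescence polarization (ΔmP) and fitted with a 4-parameter curve.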

[2] = Homo sapiens, inhibition of P308 Akt in PC-3 cells, MSD
[3] = inhibition of phospo-PDK1 in vitro
[4] = Homo sapiens, inhibition of P308 Akt in PC-3 cells using MSD

Row | Compound | EC50 [1, 2] [µM] | IC50 (PDK1; [3]) [µM] | EC50 ([1]; inhibition of P308 Akt in PC-3 cells using MSD) [µM] | IC50 (PDK1; inhibition of PDK1 in vitro) [µM] | EC50 [1, 4] [µM]
1 | Nc1ncnc2ccc(-c3ccc(CNc4ncc(I)cc4C(=O)NCc4ccc(F)c(F)c4)s3)cc12 [Ex. 8.3, 2-{[5-(4-amino-quinazolin-6-yl)-thiophen-2-ylmethyl]-amino}-N-(3,4-difluoro-benzyl)-5-iodo-nicotinamide] | < 1 | < 0.1 | – | – | –
2 | O=C1Nc2cc(OCCNc3ncccc3C(=O)NCc3ccc(F)c(F)c3)ccc2/C1=C/c1cnc[nH]1 [Example 22, (Z)-2-(2-(3-((1H-imidazol-5-yl)methylene)-2-oxoindolin-6-yloxy)ethylamino)-N-(3,4-difluorobenzyl)nicotinamide] | < 1 | < 0.1 | – | – | –
3 | 2-(4-(3-amino-1H-pyrazolo [3,4-b]pyridin-5-yl) benzylamino)-N-(thiazol- 4-yl)-5-(trifluoromethyl) nicotinamide [Example 287] | – | – | > 10 | 0.1 to 1 | –
4 | C[C@H](NC(=O)c1cc(C#N)cnc1NCc1ccc(-c2cnc(N)c(CCCN3CCOCC3)n2)cc1)c1ccc(F)cc1 [Example 88, 2-{4-[5-Amino-6-(3-morpholin-4-yl-propyl)-pyrazin-2-yl]-benzyl-amino}-5-cyano-N-[(S)-1-(4-fluoro-phenyl)-ethyl]-nicotinamide] | – | – | – | < 0.1 | < 1
5 | CN(C)S(=O)(=O)c1cnc(NCc2ccc(-c3ccc4ncnc(N)c4c3)s2)c(C(=O)NCc2ccc(F)c(F)c2)c1 [Example 8.7.5] | < 1 | < 0.1 | – | – | –
6 | C[C@H](NC(=O)c1cc(C#N)cnc1NCc1ccc(-c2cnc(N)c(C(=O)NCCN3CCN(C)CC3)n2)cc1)c1ccc(F)cc1 [Example 213, (S)-3-amino-6-(4-((5-cyano-3-(1-(4-fluorophenyl)ethylcarbamoyl)pyridin-2-ylamino)methyl)phenyl)-N-(2-(4-methylpiperazin-1-yl)ethyl)pyrazine-2-carboxamide] | – | – | – | < 0.1 | < 1
7 | NCCCc1nc(-c2ccc(CNc3ncc(C(F)(F)F)cc3C(=O)NCc3ccc(F)c(F)c3)cc2)cnc1N [Example 72, 2-{4-[5-Amino-6-(3-amino-propyl)-pyrazin-2-yl]-benzyl-amino}-N-(3,4-difluoro-benzyl)-5-trifluoromethyl-nicotinamide] | – | – | – | < 0.1 | 1 to 10
8 | C[C@H](NC(=O)c1cc(C#N)cnc1NCc1ccc(-c2cnc3[nH]c(=O)[nH]c3c2)cc1F)c1ccc(F)cc1 [Example 126, (S)-5-cyano-2-(2-fluoro-4-(2-oxo-2,3-dihydro-1H-imidazo[4,5-b]pyridin-6-yl)benzyl-amino)-N-(1-(4-fluorophenyl)ethyl) nicotinamide] | – | – | – | < 0.1 | < 1
9 | C[C@H](NC(=O)c1cc(C#N)cnc1NCc1ccc(-c2ccc(NCCN3CCOCC3)nc2)cc1)c1ccc(F)cc1 [Example 223, 5-Cyano-N-[(S)-1-(4-fluoro-phenyl)-ethyl]-2-{4-[6-(2-morpholin-4-yl-ethylamino)-pyridin-3-yl]-benzylamino}-nicotinamide] | – | – | – | > 5 | > 10
10 | C[C@H](NC(=O)c1cc(C#N)cnc1NCc1ccc(-c2ncnc(N)c2F)cc1)c1ccc(F)cc1 [Example 101, (S)-2-(4-(6-amino-5-fluoropyrimidin-4-yl)-benzylamino)-5-cyano-N-(1-(4-fluorophenyl)ethyl)nicotinamide] | – | – | – | > 5 | > 10
11 | Nc1ncnc2ccc(-c3ccc(CNc4ncccc4C(=O)Nc4cc(F)c(F)c(F)c4)s3)cc12 [Example 3.40, 2-({[5-(4-aminoquinazolin-6-yl)thiophen-2-yl]methyl}amino)-N-(3,4,5-trifluorophenyl) pyridine-3-carboxamide (TFA salt)] | 1 to 10 | 0.1 to 1 | – | – | –
12 | C[C@H](NC(=O)c1cc(C#N)cnc1NCc1ccc(-c2cnc(N)c(NCCN)n2)cc1)c1ccc(F)cc1 [Example 199, 2-{4-[5-Amino-6-(2-amino-ethylamino)-pyrazin-2-yl]-benzylamino}-5-cyano-N-[(S)-1-(4-fluoro-phenyl)-ethyl]-nicotinamide] | – | – | – | < 0.1 | < 1
13 | Nc1ncnc2ccc(-c3ccc(CNc4ncc(NC(=O)Cc5ccccc5)cc4C(=O)NCc4ccc(F)c(F)c4)s3)cc12 [Example 8.5.4, 2-({[5-(4-aminoquinazolin-6-yl)thiophen-2-yl]methyl}amino)-N-(3,4-difluorobenzyl)-5-[(phenylacetyl)amino] pyridine-3-carboxamide] | 1 to 10 | 1 to 5 | – | – | –
14 | C[C@H](NC(=O)c1cccnc1NCc1ccc(-c2ccc3nccn3c2)s1)c1ccc(F)cc1 [Example 2.7, (S)-N-(1-(4-fluorophenyl)ethyl)-2-(((5-(imidazo[1,2-a]pyridin-6-yl)thiophen-2-yl)methyl)amino)nicotinamide] | > 10 | 1 to 5 | – | – | –
15 | Cc1ccc(CNC(=O)c2cccnc2NCc2cc(OC(C)C)cc(-c3c[nH]c4ncc(C(=O)NC5CC5)cc34)c2)o1 [Example 4.1.14, N-cyclopropyl-3-[3-{[(3-{[(5-methylfuran-2-yl)methyl]carbamoyl}pyridin-2-yl)amino]methyl}-5-(propan-2-yloxy)phenyl]-1H-pyrrolo[2,3-b] pyridine-5-carboxamide] | 1 to 10 | < 0.1 | – | – | –
16 | C[C@H](NC(=O)c1cccnc1NCCOc1ccc2cc[nH]c2c1)c1ccc(F)c(F)c1 [Example 19.1, (S)-2-(2-(1H-indol-6-yloxy)ethylamino)-N-(1-(3,4-difluorophenyl)ethyl)nicotinamide] | > 10 | > 5 | – | – | –
17 | Cn1cnc2cnc3ccc(-c4ccc(CNc5ncccc5C(=O)NCc5ccc(F)c(F)c5)s4)cc3c21 [Example 2.24] | < 1 | < 0.1 | – | – | –
18 | C[C@H](NC(=O)c1cc(C#N)cnc1NCc1ccc(-c2ccn3ncnc(N)c23)cc1)c1ccc(F)cc1 [Example 174, 2-[4-(4-Amino-pyrrolo[2,1-f][1,2,4]triazin-5-yl)-benzylamino]-5-cyano-N-[(S)-1-(4-fluoro-phenyl)-ethyl]-nicotinamide] | – | – | – | < 0.1 | < 1
19 | Nc1ncnc2ccc(-c3ccc(CNc4ncccc4C(=O)Nc4ccc(Cl)c(F)c4)s3)cc12 [Example 3.55, 2-({[5-(4-aminoquinazolin-6-yl)thiophen-2-yl]methyl}amino)-N-(4-chloro-3-fluorophenyl) pyridine-3-carboxamide (TFA salt)] | > 10 | 0.1 to 1 | – | – | –

Other lines, results leading:

Row | EC50 [1, 2] [µM] | IC50 (PDK1; [3]) [µM] | EC50 ([1]; inhibition of P308 Akt in PC-3 cells using MSD) [µM] | IC50 (PDK1; inhibition of PDK1 in vitro) [µM] | EC50 [1, 4] [µM] | Compound
20 | – | – | – | < 0.1 | < 1 | Cc1n[nH]c2ncc(-c3ccc(CNc4ncc(C#N)nc4C(=O)N[C@@H](C)c4ccc(F)c(F)c4)cc3)cc12 [Example 410, (S)-6-cyano-N-(1-(3,4-difluorophenyl)ethyl)-3-(4-(3-methyl-1H-pyrazolo [3,4-b]pyridin-5-yl)benzylamino)pyrazine-2-carboxamide]
21 | – | – | – | < 0.1 | < 1 | Nc1n[nH]c2ncc(-c3ccc(CNc4ncc(C(F)(F)F)cc4C(=O)Nc4ccccc4)cc3)cc12 [Example 292, 2-(4-(3-amino-1H-pyrazolo [3,4-b]pyridin-5-yl)benzylamino)-N-phenyl-5-(trifluoromethyl)nicotinamide]
22 | – | – | – | < 0.1 | 1 to 10 | C[C@H](NC(=O)c1cccnc1NCc1ccc(-c2ccc3ncnc(N4CCC4)c3c2)s1)c1ccc(F)c(F)c1 [Example 387, 2-{[5-(4-Azetidin-1-yl-quinazolin-6-yl)-thiophen-2-ylmethyl]-amino}-N-[(S)-1-(3,4-difluoro-phenyl)-ethyl]-nicotinamide]
23 | – | – | – | 0.1 to 1 | 1 to 10 | C[C@H](NC(=O)c1cc(C#N)cnc1Nc1ccc(-c2c[nH]c3ncnc(N)c23)cc1)c1ccc(F)cc1 [Example 436, (S)-2-(4-(4-amino-7H-pyrrolo[2,3-d]pyrimidin-5-yl)phenylamino)-5-cyano-N-(1-(4-fluorophenyl)ethyl)nicotinamide]
24 | – | – | – | < 0.1 | < 1 | N#Cc1cnc(NCc2ccc(-c3cnc4[nH]nc(N)c4c3)cc2)c(C(=O)Nc2ccc(Cl)cc2)n1 [Example 426, 3-(4-(3-amino-1H-pyrazolo[3,4-b]pyridin-5-yl)benzylamino)-N-(4-chlorophenyl)-6-cyanopyrazine-2-carboxamide]
25 | – | – | – | < 0.1 | < 1 | Cn1cc(-c2ccc(CNc3ncc(C(F)(F)F)cc3C(=O)Nc3ccc(F)cc3)cc2)c2c(N)ncnc21 [Example 323, 2-(4-(4-amino-7-methyl-7H-pyrrolo[2,3-d]pyrimidin-5-yl)benzylamino)-N-(4-fluorophenyl)-5-(trifluoromethyl)nicotinamide]
26 | – | – | – | < 0.1 | 1 to 10 | Nc1n[nH]c2ncc(-c3ccc(CNc4ncc(C(F)(F)F)cc4C(=O)Nc4ccncc4)cc3)cc12 [Example 288, 2-(4-(3-amino-1H-pyrazolo [3,4-b]pyridin-5-yl)benzylamino)-N-(pyridin-4-yl)-5-(trifluoromethyl) nicotinamide]
27 | – | – | – | < 0.1 | 1 to 10 | C[C@H](NC(=O)c1nc(C#N)cnc1NCc1ccc(-c2cnc3[nH]nc(NC(=O)C(C)(C)C)c3c2)cc1)c1ccc(F)c(F)c1 [Example 420, (S)-6-cyano-N-(1-(3,4-difluorophenyl)ethyl)-3-(4-(3-pivalamido-1H-pyrazolo[3,4-b]pyridin-5-yl)benzylamino)pyrazine-2-carboxamide]
28 | – | < 0.1 | – | – | < 1 | CC(C)n1cc(-c2ccc(CNc3ncc(C(F)(F)F)cc3C(=O)Nc3ccc(F)cc3)cc2)c2c(N)ncnc21 [Example 442, 2-(4-(4-amino-7-isopropyl-7H-pyrrolo[2,3-d]pyrimidin-5-yl)benzylamino)-N-(4-fluorophenyl)-5-(trifluoromethyl)nicotinamide]
